Test system: Swiss albino mice
Experiment: Serum triglyceride and total cholesterol lowering activity in Swiss albino mice
Format: in vivo
Settings: male Swiss albino mice, 3 mg/kg/day orally for 6 days, 1 hour after dosing on 6th day
Protocol: i) Serum Triglyceride and Total Cholesterol Lowering Activity in Swiss Albino Mice:
Male Swiss albino mice (SAM) were bred in Zydus animal house. All these animals were maintained under 12 hour light and dark cycle at 25±1° C. Animals were given standard laboratory chow (NIN, Hyderabad, India) and water ad libitum. SAM of 20–30 g body weight range were used.
The test compounds were administered orally to Swiss albino mice at 0.001 to 50 mg/kg/day dose for 6 days. The compound was administered after suspending it in 0.25% CMC or dissolving it in water, when compound is water-soluble. Control mice were treated with vehicle (0.25% of Carboxymethylcellulose; dose 10 ml/kg).
The blood samples were collected on 0th day and in fed state 1 hour after drug administration on 6th day of the treatment. The blood was collected in non heparinised capillary and the serum was analyzed for triglyceride and total cholesterol (Wieland, O. Methods of Enzymatic analysis. Bergermeyer, H., O., Ed., 1963. 211–214; Trinder, P. Ann. Clin. Biochem. 1969. 6:24–27). Measurement of serum triglyceride and total cholesterol was done using commercial kits (Zydus-Cadila, Pathline, Ahmedabad, India).
Percentage reduction in triglycerides/total cholesterol were calculated according to the formula:
[formula] • OC=Zero day control group value OT=Zero day treated group value • TC=Test day control group TT=Test day treated group

CCOC(Cc1ccc2cc(OCCn3c(C)ccc3-c3ccc(OC)cc3)ccc2c1)C(=O)OC (racemic) [Example 76, (R/S) Methyl-2-ethoxy-3[6-[2-[2-(4-methoxyphenyl)-5-methyl-pyrrol-1-yl]ethoxy]napthalen-2yl]propanoate]
% Triglyceride lowering: 26%
